Laboratory results as given in article PMC5505960, “A novel STK1-targeted small-molecule as an “antibiotic resistance breaker” against multidrug-resistant Staphylococcus aureus” (Scientific Reports, 2017).

How the values were obtained:
[1] = biological target: T1, STK1 (STKK1, soluble kinase domain) (Staphylococcus aureus, UniProt A0ABF7PGK0); assay: inhibition of autophosphorylation of purified STKK1 (gamma-32P-ATP); also elution of STK1 from ATP column; assay type: biochemical
T1 construct: gene SA1063; His-tag-STKK1, kinase domain with part of the adjacent juxta-membrane domain (1-280 aa)
T1 sequence (A0ABF7PGK0 entry or part of it): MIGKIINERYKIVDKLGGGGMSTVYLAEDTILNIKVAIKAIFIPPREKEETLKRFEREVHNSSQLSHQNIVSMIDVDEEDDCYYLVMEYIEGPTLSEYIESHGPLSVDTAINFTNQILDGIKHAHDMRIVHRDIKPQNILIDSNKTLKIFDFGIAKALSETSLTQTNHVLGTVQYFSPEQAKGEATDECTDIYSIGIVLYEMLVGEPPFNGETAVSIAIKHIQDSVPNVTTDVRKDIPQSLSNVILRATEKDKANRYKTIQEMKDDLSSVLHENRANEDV

[2] = system: WalR-P (STKK1-phosphorylated WalR) (Staphylococcus aureus (ORF numbering of N315; source strain of the clone not stated)); assay: EMSA; conditions: scale: fold bound/free ratio vs unphosphorylated WalR
[3] = biological target: T1, STK1 (STKK1, soluble kinase domain); assay: inhibition of autophosphorylation of purified STKK1 (gamma-32P-ATP); also elution of purified STKK1 from ATP column; assay type: biochemical

Molecule	binding signal [2]	also measured
Cc1ccc(NC(=O)c2sc(=S)n3c2[nH]c(=O)c2ccccc23)c(C)c1 [Inh2, N-(2,4-Dimethylphenyl)-5-oxo-1-thioxo-4,5-dihydro[1,3]thiazolo[3,4-a] quinazoline-3-carboxamide]		IC50 [1]: 24.5 µM
PSA2097 promoter probe (ssaA)	> 2	
PSA0710 promoter probe (lytE)	> 2	
COC(=O)c1ccc2c(=O)[nH]c3c(C(=O)Nc4ccccc4)sc(=S)n3c2c1 [Inh2-B1, Methyl 5-oxo-3-(phenylcarbamoyl)-1-thioxo-4,5dihydro[1,3]thiazolo[3,4-a]quinazoline-8-carboxylate]		IC50 [3]: 49 µM
